Biological target: Beta-lactamase TEM (Escherichia coli) (UniProt P62593)
Experiment: Kd for TEM-1 beta-lactamase

Sequence of Beta-lactamase TEM (Escherichia coli) (P62593 whole entry, looked up): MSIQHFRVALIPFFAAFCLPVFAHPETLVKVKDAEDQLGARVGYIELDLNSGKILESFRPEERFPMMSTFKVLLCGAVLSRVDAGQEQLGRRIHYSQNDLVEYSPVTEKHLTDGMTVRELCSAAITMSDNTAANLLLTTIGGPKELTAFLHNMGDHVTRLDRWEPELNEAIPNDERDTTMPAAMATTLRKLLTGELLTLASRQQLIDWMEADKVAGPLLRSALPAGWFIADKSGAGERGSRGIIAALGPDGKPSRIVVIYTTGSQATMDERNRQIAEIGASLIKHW

Kd: 800 nM
SMILES: C/C=C1\O[C@@H]2CC(=O)N2[C@H]1C(=O)O [Sodium; (2R,5R)-3-eth-(Z)-ylidene-7-oxo-4-oxa-1-aza-bicyclo[3.2.0]heptane-2-carboxylate]

From BindingDB's records for doi:10.1016/0960-894X(95)00162-M (1995)
